Where two headings read alike, the source gives them in different places.
Experiments:
AKT1 E17K = target: T1, AKT1 E17K (Homo sapiens, UniProt P31749, E17K); test: Live cell target engagement by NanoBRET competitive probe displacement, AKT1 E17K; format: binding; details: transfected HEK293 cells, 2 h at 37° C., read-out: AKT1 E17K IC50: GeoMean IC50
T1 construct: expressed in transfected cells; host or cells: HEK293
Description: (§1) Determining live cell AKT1 E17K, AKT1 WT, and AKT2 target engagement by NanoBRET competitive probe displacement. Live cell target engagement assays were performed as described (Vasta, J. D. et al. Cell Chem Biol 2018, 25(11), 206-214). Briefly, HEK293 cells were transfected with plasmids encoding kinase-NanoLuciferase fusion proteins overnight. Cells were then treated with serial dilutions of compound and an ˜EC50 concentration of fluorescently-tagged ATP-competitive tracer (Promega). After incubation for 2 h at 37° C., luciferase substrate and extracellular luciferase inhibitor were added to all wells, and luminescent intensity at 460 nm and 600 nm were measured on a multimode plate-reader. The ratio of E600/E460 was calculated to give the tracer engagement signal (BRET). IC50 values were calculated by fitting BRET values to a log(inhibitor) vs. response Hill equation.

AKT1 WT = target: T2, AKT1 WT (Homo sapiens, UniProt P31749); test: Live cell target engagement by NanoBRET competitive probe displacement, AKT1 WT; format: binding; details: transfected HEK293 cells, 2 h at 37° C., read-out: AKT1 WT IC50: GeoMean IC50
T2 construct: expressed in transfected cells; host or cells: HEK293
Description: as §1

[1] = tested on: LAPC4 prostate cancer cells, which express the AKT1 E17K allele; test: Antiproliferative effects in LAPC4 cells (CellTiter Glo, 72 h); format: cell-based; details: read-out: LAPC4 proliferation IC50: GeoMean IC50
Description: Antiproliferative effects in LAPC4 cells. LAPC4 prostate cancer cells (Klein, K. A. et al. Nat Med 1997, 3, 402-408), which express the AKT1 E17K allele, were grown in IMDM media (Hyclone) supplemented with 12% FBS+1% P/S. To assess compound effects on growth, 1,000 cells/well were seeded in 384 well assay plates, incubated with compound dilutions dissolved in DMSO. After 72 h, intracellular ATP content was assessed with CellTiter Glo reagent (Promega) according to the manufacturer's instructions. IC50 values were calculated by fitting luminescence values to a log(inhibitor) vs. response Hill equation.

AKT2 = target: T3, AKT2 (Homo sapiens, UniProt P31751); test: Live cell target engagement by NanoBRET competitive probe displacement, AKT2; format: binding; details: transfected HEK293 cells, 2 h at 37° C., read-out: AKT2 IC50: GeoMean IC50
T3 construct: expressed in transfected cells; host or cells: HEK293
Description: as §1

T2 sequence (P31749 whole entry): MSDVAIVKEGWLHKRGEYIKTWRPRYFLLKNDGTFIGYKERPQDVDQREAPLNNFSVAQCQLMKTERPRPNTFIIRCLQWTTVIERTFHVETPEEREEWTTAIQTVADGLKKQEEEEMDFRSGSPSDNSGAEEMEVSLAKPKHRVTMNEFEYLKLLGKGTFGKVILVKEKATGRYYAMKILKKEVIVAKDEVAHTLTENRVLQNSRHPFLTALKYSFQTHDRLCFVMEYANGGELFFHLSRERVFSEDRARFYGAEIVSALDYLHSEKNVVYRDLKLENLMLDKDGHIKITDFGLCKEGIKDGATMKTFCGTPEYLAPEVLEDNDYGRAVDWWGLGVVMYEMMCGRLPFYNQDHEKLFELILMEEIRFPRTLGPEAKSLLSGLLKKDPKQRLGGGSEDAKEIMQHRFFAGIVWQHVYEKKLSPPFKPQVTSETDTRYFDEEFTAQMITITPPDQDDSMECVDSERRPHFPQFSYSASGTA
T3 sequence (P31751 whole entry): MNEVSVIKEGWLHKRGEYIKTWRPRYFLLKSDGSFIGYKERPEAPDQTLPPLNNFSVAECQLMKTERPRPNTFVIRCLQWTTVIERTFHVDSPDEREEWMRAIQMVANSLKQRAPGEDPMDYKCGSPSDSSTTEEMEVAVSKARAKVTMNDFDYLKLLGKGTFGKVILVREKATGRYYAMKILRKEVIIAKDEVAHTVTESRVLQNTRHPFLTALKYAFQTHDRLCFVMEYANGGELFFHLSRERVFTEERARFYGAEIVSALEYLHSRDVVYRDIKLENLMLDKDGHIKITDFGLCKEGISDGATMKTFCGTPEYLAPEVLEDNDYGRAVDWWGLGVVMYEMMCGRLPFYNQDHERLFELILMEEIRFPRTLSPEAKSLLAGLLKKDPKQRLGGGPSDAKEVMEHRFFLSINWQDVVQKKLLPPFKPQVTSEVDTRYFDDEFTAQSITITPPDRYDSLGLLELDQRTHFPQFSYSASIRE
T1 sequence (P31749 whole entry E17K): as the sequence (P31749 whole entry) above, with E17K counted along it

Compound | IC50 (AKT1 E17K) [nM] | IC50 (AKT1 WT) [nM] | IC50 ([1]; Homo sapiens, LAPC4, 72 h) [nM] | IC50 (AKT2) [nM] | IC50 [1] [nM]
Nc1ncccc1-c1nc2ccc(-n3cccn3)nc2n1-c1ccc2c(c1)C(O)C[C@@H]2NC(=O)c1ccc(O)c(C=O)c1 (single isomer, unassigned) [Example 98] | 10 to 100 | 10 to 100 | 100 to 2000 | 100 to 2000 | 
Nc1ncccc1-c1nc2ccc(-n3cccn3)nc2n1-c1ccc2c(c1)[C@@H](O)C[C@@H]2NC(=O)c1ccc(O)c(C=O)c1 (single isomer, unassigned) [Example 99] | 100 to 2000 | 100 to 2000 | 100 to 2000 | 100 to 2000 | 
Nc1ncccc1-c1nc2ccc(-n3cccn3)nc2n1-c1ccc2c(c1)CC(F)[C@@H]2NC(=O)c1ccc(O)c(C=O)c1 (single isomer, unassigned) [Example 256, N-[(1R,2R*)-5-[2-(2-aminopyridin-3-yl)-5-(pyrazol-1-yl)imidazo[4,5-b]pyridin-3-yl]-2-fluoro-2,3-dihydro-1H-inden-1-yl]-3-formyl-4-hydroxybenzamide] | 10 to 100 | 10 to 100 |  | 100 to 2000 | 10 to 100
Nc1ncccc1-c1nc2ccc(-n3cccn3)nc2n1-c1ccc2c(c1)CC(F)[C@@H]2NC(=O)c1ccc(O)c(C=O)c1 (single isomer, unassigned) [Example 257, N-[(1R,2S*)-5-[2-(2-aminopyridin-3-yl)-5-(pyrazol-1-yl)imidazo[4,5-b]pyridin-3-yl]-2-fluoro-2,3-dihydro-1H-inden-1-yl]-3-formyl-4-hydroxybenzamide] | 10 to 100 | 10 to 100 |  | 100 to 2000 | 100 to 2000
Nc1ncccc1-c1nc2ccc(-n3cccn3)nc2n1-c1ccc2c(c1)CC(F)[C@@H]2NC(=O)c1cc(C=O)c(O)cc1F (single isomer, unassigned) [Example 258, N-((1R,2R*)-5-(2-(2-aminopyridin-3-yl)-5-(1H-pyrazol-1-yl)-3H-imidazo[4,5-b]pyridin-3-yl)-2-fluoro-2,3-dihydro-1H-inden-1-yl)-2-fluoro-5-formyl-4-hydroxybenzamide] | < 10 | 10 to 100 | 10 to 100 | 10 to 100 | 
Nc1ncccc1-c1nc2ccc(-n3cccn3)nc2n1-c1ccc2c(c1)CC(F)[C@@H]2NC(=O)c1cc(C=O)c(O)cc1F (single isomer, unassigned) [Example 259, N-((1R,2S*)-5-(2-(2-aminopyridin-3-yl)-5-(1H-pyrazol-1-yl)-3H-imidazo[4,5-b]pyridin-3-yl)-2-fluoro-2,3-dihydro-1H-inden-1-yl)-2-fluoro-5-formyl-4-hydroxybenzamide] | 10 to 100 | 10 to 100 |  | 100 to 2000 | 10 to 100
Nc1ncccc1-c1nc2ccc(-c3ccccc3)nc2n1-c1ccc2c(c1)CCC2NCCc1ccc(C=O)c(O)c1 (stereo not shown) [Example 1, 4-(2-((5-(2-(2-aminopyridin-3-yl)-5-phenyl-3H-imidazo[4,5-b]pyridin-3-yl)-2,3-dihydro-1H-inden-1-yl)amino)ethyl)-2-hydroxybenzaldehyde] | 10 to 100 | 100 to 2000 |  | 100 to 2000 | 
Nc1ncccc1-c1nc2ccc(-c3ccccc3)nc2n1-c1ccc2c(c1)CCC2NCCc1ccc(O)c(C=O)c1 (stereo not shown) [Example 2, 5-(2-((5-(2-(2-aminopyridin-3-yl)-5-phenyl-3H-imidazo[4,5-b]pyridin-3-yl)-2,3-dihydro-1H-inden-1-yl)amino)ethyl)-2-hydroxybenzaldehyde] | 100 to 2000 | ≥ 2000 |  | ≥ 2000 | 
Nc1ncccc1-c1nc2ccc(-c3ccccc3)nc2n1-c1ccc2c(c1)CC[C@H]2NCCc1ccc(C=O)c(O)c1 [Example 3, 4-(2-{[(1R)-5-[2-(2-aminopyridin-3-yl)-5-phenylimidazo[4,5-b]pyridin-3-yl]-2,3-dihydro-1H-inden-1-yl]amino}ethyl)-2-hydroxybenzaldehyde] | 10 to 100 | 100 to 2000 |  | ≥ 2000 | 
Nc1ncccc1-c1nc2ccc(-c3ccccc3)nc2n1-c1ccc2c(c1)CC[C@@H]2NCCc1ccc(C=O)c(O)c1 [Example 4, 4-(2-{[(1S)-5-[2-(2-aminopyridin-3-yl)-5-phenylimidazo[4,5-b]pyridin-3-yl]-2,3-dihydro-1H-inden-1-yl]amino}ethyl)-2-hydroxybenzaldehyde] | 10 to 100 | 100 to 2000 |  | 100 to 2000 | 
Nc1ncccc1-c1nc2ccc(-c3ccccc3)nc2n1-c1ccc2c(c1)CC[C@@H]2NC(=O)c1ccc(O)c(C=O)c1 [Example 5, (S)—N-(5-(2-(2-aminopyridin-3-yl)-5-phenyl-3H-imidazo[4,5-b]pyridin-3-yl)-2,3-dihydro-1H-inden-1-yl)-3-formyl-4-hydroxybenzamide] | 10 to 100 | 10 to 100 | 10 to 100 | 10 to 100 | 
Nc1ncccc1-c1nc2ccc(-c3ccccc3)nc2n1-c1ccc2c(c1)CCC2NC(=O)Cc1ccc(C=O)c(O)c1 (stereo not shown) [Example 6, N-(5-(2-(2-aminopyridin-3-yl)-5-phenyl-3H-imidazo[4,5-b]pyridin-3-yl)-2,3-dihydro-1H-inden-1-yl)-2-(4-formyl-3-hydroxyphenyl)acetamide] | 10 to 100 | 10 to 100 |  | 100 to 2000 | 
Nc1ncccc1-c1nc2ccc(-c3ccccc3)nc2n1-c1ccc2c(c1)CC[C@H]2NC(=O)c1ccc(O)c(C=O)c1 [Example 7, N-[(1R)-5-[2-(2-aminopyridin-3-yl)-5-phenylimidazo[4,5-b]pyridin-3-yl]-2,3-dihydro-1H-inden-1-yl]-3-formyl-4-hydroxybenzamide] | 100 to 2000 | ≥ 2000 |  | ≥ 2000 | 
Nc1ncccc1-c1nc2ccc(-c3ccccc3)nc2n1-c1ccc2c(c1)CC[C@@H]2NC(=O)Cc1ccc(C=O)c(O)c1Cl [Example 9, N-[(1S)-5-[2-(2-aminopyridin-3-yl)-5-phenylimidazo[4,5-b]pyridin-3-yl]-2,3-dihydro-1H-inden-1-yl]-2-(2-chloro-4-formyl-3-hydroxyphenyl)acetamide] | 10 to 100 | 10 to 100 |  | 100 to 2000 | 
Nc1ncccc1-c1nc2ccc(-n3cccn3)nc2n1-c1ccc2c(c1)CC[C@@H]2NC(=O)c1cc(C=O)c(F)cc1F [Example 188, (S)—N-(5-(2-(2-aminopyridin-3-yl)-5-(1H-pyrazol-1-yl)-3H-imidazo[4,5-b]pyridin-3-yl)-2,3-dihydro-1H-inden-1-yl)-2,4-difluoro-5-formylbenzamide] | 10 to 100 | 10 to 100 |  | 100 to 2000 | 
Nc1ncccc1-c1nc2ccc(-n3cccn3)nc2n1-c1ccc2c(c1)CC[C@@H]2NC(=O)c1ccc(F)c(C=O)c1 [Example 191, (S)—N-(5-(2-(2-aminopyridin-3-yl)-5-(1H-pyrazol-1-yl)-3H-imidazo[4,5-b]pyridin-3-yl)-2,3-dihydro-1H-inden-1-yl)-4-fluoro-3-formylbenzamide] | 10 to 100 | 10 to 100 |  | 10 to 100 | 
Nc1ncccc1-c1nc2ccc(-n3cccn3)nc2n1-c1ccc2c(c1)CC[C@@H]2n1cnc2c(F)c(O)c(C=O)cc2c1=O [Example 243, 3-[(1S)-5-[2-(2-aminopyridin-3-yl)-5-(pyrazol-1-yl)imidazo[4,5-b]pyridin-3-yl]-2,3-dihydro-1H-inden-1-yl]-8-fluoro-7-hydroxy-4-oxoquinazoline-6-carbaldehyde] |  |  | 100 to 2000 |  | 
CS(=O)(=O)Nc1cc2ncn([C@H]3CCc4cc(-n5c(-c6cccnc6N)nc6ccc(-n7cccn7)nc65)ccc43)c(=O)c2cc1C=O [Example 244, N-{3-[(1S)-5-[2-(2-aminopyridin-3-yl)-5-(pyrazol-1-yl)imidazo[4,5-b]pyridin-3-yl]-2,3-dihydro-1H-inden-1-yl]-6-formyl-4-oxoquinazolin-7-yl}methanesulfonamide] |  |  | 100 to 2000 |  | 
Cc1nc2cc(O)c(C=O)cc2c(=O)n1[C@H]1CCc2cc(-n3c(-c4cccnc4N)nc4ccc(-n5cccn5)nc43)ccc21 [Example 249, 3-[(1S)-5-[2-(2-aminopyridin-3-yl)-5-(pyrazol-1-yl)imidazo[4,5-b]pyridin-3-yl]-2,3-dihydro-1H-inden-1-yl]-7-hydroxy-2-methyl-4-oxoquinazoline-6-carbaldehyde] |  |  | ≥ 2000 |  | 
Nc1ncccc1-c1nc2ccc(-n3cccn3)nc2n1-c1ccc2c(c1)CC(O)C2NC(=O)c1ccc(O)c(C=O)c1 (stereo not shown) [Example 251, N-(5-(2-(2-aminopyridin-3-yl)-5-(1H-pyrazol-1-yl)-3H-imidazo[4,5-b]pyridin-3-yl)-2-hydroxy-2,3-dihydro-1H-inden-1-yl)-3-formyl-4-hydroxybenzamide] | 10 to 100 | 100 to 2000 |  | 100 to 2000 | 
